Data from patent US9133158B2, “Bicyclic dihydroisoquinoline-1-one derivatives” (Hoffmann-La Roche Inc., priority 2011, dated 2015).

What was measured:
human CYP11B2 = biological target: T1, human CYP11B2 (Homo sapiens, UniProt P19099); test: G-402 cellular enzyme assay, human CYP11B2 (aldosterone release, HTRF); type: cell-based; details: G-402 cells, 1 μM Deoxycorticosterone
T1 construct: expressed in transfected cells
T1 sequence (P19099 25-503): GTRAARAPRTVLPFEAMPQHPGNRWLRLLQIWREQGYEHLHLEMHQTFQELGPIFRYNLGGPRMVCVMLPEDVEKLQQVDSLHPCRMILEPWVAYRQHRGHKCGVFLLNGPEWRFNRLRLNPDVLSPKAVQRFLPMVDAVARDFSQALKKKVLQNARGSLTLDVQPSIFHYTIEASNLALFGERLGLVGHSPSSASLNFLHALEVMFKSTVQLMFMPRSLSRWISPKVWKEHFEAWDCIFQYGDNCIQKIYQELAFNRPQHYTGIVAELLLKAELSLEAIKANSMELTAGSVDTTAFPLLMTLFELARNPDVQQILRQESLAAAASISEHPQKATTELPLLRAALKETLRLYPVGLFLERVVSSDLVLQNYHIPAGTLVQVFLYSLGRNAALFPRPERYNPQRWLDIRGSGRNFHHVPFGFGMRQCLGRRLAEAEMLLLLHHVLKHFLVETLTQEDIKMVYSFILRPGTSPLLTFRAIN
Procedure, shortened: (§1)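 Steroid output from supernatants, quantified by HTRF as cortisol for CYP11B1 or aldosterone for CYP11B2, gave EC50 values by least-squares 4-parameter MMF fitting against inhibitor concentration. Stably transfected G-402 cells carrying the human enzyme received 1 μM deoxycortisol or 1 μM deoxycorticosterone respectively, 16 h, DMEM/F12 with 2.5% charcoal-stripped FCS.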

human CYP11B1 = biological target: T2, human CYP11B1 (Homo sapiens, UniProt P15538); test: G-402 cellular enzyme assay, human CYP11B1 (cortisol release, HTRF); type: cell-based; details: G-402 cells, 1 μM Deoxycortisol
T2 construct: expressed in transfected cells
T2 sequence (P15538 25-503): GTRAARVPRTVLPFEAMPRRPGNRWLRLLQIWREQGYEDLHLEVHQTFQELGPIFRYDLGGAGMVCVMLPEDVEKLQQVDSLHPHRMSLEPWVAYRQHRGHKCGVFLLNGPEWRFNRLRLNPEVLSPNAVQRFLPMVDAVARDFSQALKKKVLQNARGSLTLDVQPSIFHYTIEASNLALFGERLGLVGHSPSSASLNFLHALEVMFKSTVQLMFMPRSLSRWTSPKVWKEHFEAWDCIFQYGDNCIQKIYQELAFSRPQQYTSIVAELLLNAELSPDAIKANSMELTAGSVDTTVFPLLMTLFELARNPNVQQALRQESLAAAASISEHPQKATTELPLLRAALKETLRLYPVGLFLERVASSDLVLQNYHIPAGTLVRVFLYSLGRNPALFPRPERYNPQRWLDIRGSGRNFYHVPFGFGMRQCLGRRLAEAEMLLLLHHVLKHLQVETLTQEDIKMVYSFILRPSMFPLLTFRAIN
Procedure, shortened: as §1

[1] = rat; FAD286 after 4 weeks, spironolactone at 4 and 8 weeks of treatment; cited from earlier work
CYP11B2 = CYP11B2 (Homo sapiens, UniProt P19099); details: patients with primary aldosteronism, oral; cited from earlier work

For `CCS(=O)(=O)N1CCC(Oc2cncc(N3C(=O)c4ccc(Cl)cc4C3(C)C)c2)C1` (stereo not shown) [Example 446, 5-Chloro-2-[5-(1-ethanesulfonyl-pyrrolidin-3-yloxy) -pyridin-3-yl]-3,3-dimethyl-2,3-dihydro-isoindol-1-one], the EC50 (human CYP11B2) was 185 nM and the EC50 (human CYP11B1) was 263 nM.
Compound `CCS(=O)(=O)N1CC[C@@H](Oc2cncc(N3C(=O)c4ccc(Cl)cc4C3(C)C)c2)C1` [Example 447, 5-Chloro-2-[5-((R)-1-ethanesulfonyl-pyrrolidin-3-yloxy)-pyridin-3-yl]-3,3-dimethyl-2,3-dihydro-isoindol-1-one] has an EC50 (human CYP11B2) of 1.9 nM and an EC50 (human CYP11B1) of 233 nM.
`CCS(=O)(=O)N1CC[C@H](Oc2cncc(N3C(=O)c4ccc(Cl)cc4C3(C)C)c2)C1` [Example 448, 5-Chloro-2-[5-((S)-1-ethanesulfonyl-pyrrolidin-3-yloxy)-pyridin-3-yl]-3,3-dimethyl-2,3-dihydro-isoindol-1-one] gave an EC50 (human CYP11B2) of 21.2 nM and an EC50 (human CYP11B1) of 1980 nM.
`CC(=O)N1CCC(Oc2cncc(N3C(=O)c4ccc(Cl)cc4C3(C)C)c2)CC1` [Example 449, 2-[5-(1-Acetyl-piperidin-4-yloxy)-pyridin-3-yl]-5-chloro-3,3-dimethyl-2,3-dihydro-isoindol-1-one] showed an EC50 (human CYP11B2) of 2.8 nM and an EC50 (human CYP11B1) of 235 nM.
`CC(=O)N1CC(Oc2cncc(N3C(=O)c4ccc(Cl)cc4C3(C)C)c2)C1` [Example 450, 2-[5-(1-Acetyl-azetidin-3-yloxy)-pyridin-3-yl]-5-chloro-3,3-dimethyl-2,3-dihydro-isoindol-1-one] gave an EC50 (human CYP11B2) of 122 nM and an EC50 (human CYP11B1) of 20100 nM.
`CCC(=O)N1CC(Oc2cncc(N3C(=O)c4ccc(Cl)cc4C3(C)C)c2)C1` [Example 451, 5-Chloro-3,3-dimethyl-2-[5-(1-propionyl-azetidin-3-yloxy)-pyridin-3-yl]-2,3-dihydro-isoindol-1-one] showed an EC50 (human CYP11B2) of 38.9 nM and an EC50 (human CYP11B1) of 5330 nM.
With `CC1(C)c2cc(Cl)ccc2C(=O)N1c1cncc(OC2CN(S(C)(=O)=O)C2)c1` [Example 452, 5-Chloro-2-[5-(1-methanesulfonyl-azetidin-3-yloxy)-pyridin-3-yl]-3,3-dimethyl-2,3-dihydro-isoindol-1-one] the EC50 (human CYP11B2) was 26.8 nM and the EC50 (human CYP11B1) was 1740 nM.
Work on `CCS(=O)(=O)N1CC(Oc2cncc(N3C(=O)c4ccc(Cl)cc4C3(C)C)c2)C1` [Example 453, 5-Chloro-2-[5-(1-ethanesulfonyl-azetidin-3-yloxy)-pyridin-3-yl]-3,3-dimethyl-2,3-dihydro-isoindol-1-one] yielded an EC50 (human CYP11B2) of 5.1 nM and an EC50 (human CYP11B1) of 876 nM.
Compound `CC1(C)c2cc(Cl)ccc2C(=O)N1c1cncc(N2CC[C@H](O)C2)c1` [Example 454, 5-Chloro-2-[5-((S)-3-hydroxy-pyrrolidin-1-yl)-pyridin-3-yl]-3,3-dimethyl-2,3-dihydro-isoindol-1-one] has an EC50 (human CYP11B2) of 6.6 nM and an EC50 (human CYP11B1) of 62 nM.
With `CC(=O)N1CCN(c2cncc(N3C(=O)c4ccc(Cl)cc4C3(C)C)c2)CC1` [Example 455, 2-[5-(4-Acetyl-piperazin-1-yl)-pyridin-3-yl]-5-chloro-3,3-dimethyl-2,3-dihydro-isoindol-1-one] the EC50 (human CYP11B2) was 8.6 nM and the EC50 (human CYP11B1) was 717 nM.
In the case of `CCC(=O)N1CCN(c2cncc(N3C(=O)c4ccc(Cl)cc4C3(C)C)c2)CC1` [Example 456, 5-Chloro-3,3-dimethyl-2-[5-(4-propionyl-piperazin-1-yl)-pyridin-3-yl]-2,3-dihydro-isoindol-1-one], the EC50 (human CYP11B2) is reported as 1.2 nM and the EC50 (human CYP11B1) is reported as 106 nM.
In the case of `CC1(C)c2cc(Cl)ccc2C(=O)N1c1cncc(N2CCN(S(C)(=O)=O)CC2)c1` [Example 457, 5-Chloro-2-[5-(4-methanesulfonyl-piperazin-1-yl)-pyridin-3-yl]-3,3-dimethyl-2,3-dihydroisoindol-1-one], the EC50 (human CYP11B2) is reported as 1.8 nM and the EC50 (human CYP11B1) is reported as 298 nM.
`CCS(=O)(=O)N1CCN(c2cncc(N3C(=O)c4ccc(Cl)cc4C3(C)C)c2)CC1` [Example 458, 5-Chloro-2-[5-(4-ethanesulfonyl-piperazin-1-yl)-pyridin-3-yl]-3,3-dimethyl-2,3-dihydroisoindol-1-one] gave an EC50 (human CYP11B2) of 1.7 nM and an EC50 (human CYP11B1) of 351 nM.
In the case of `CC1(C)c2cc(Cl)ccc2C(=O)N1c1cncc(N2CCN(C(=O)c3ncccc3Cl)CC2)c1` [Example 459, 5-Chloro-2-{5-[4-(3-chloro-pyridine-2-carbonyl)-piperazin-1-yl]-pyridin-3-yl}-3,3-dimethyl-2,3-dihydro-isoindol-1-one], the EC50 (human CYP11B2) is reported as 5.6 nM and the EC50 (human CYP11B1) is reported as 594 nM.
Work on `CC(=O)N1CCC(c2cncc(N3C(=O)c4ccc(Cl)cc4C3(C)C)c2)C1` (stereo not shown) [Example 460, 2-[5-(1-Acetyl-pyrrolidin-3-yl)-pyridin-3-yl]-5-chloro-3,3-dimethyl-2,3-dihydro-isoindol-1-one] yielded an EC50 (human CYP11B2) of 12.3 nM and an EC50 (human CYP11B1) of 516 nM.
`CC(=O)N1CCC(c2cncc(N3C(=O)c4ccc(Cl)cc4C3(C)C)c2)CC1` [Example 461, 2-(1′-Acetyl-1′,2′,3′,4′,5′,6′-hexahydro-[3,4′]bipyridinyl-5-yl)-5-chloro-3,3-dimethyl-2,3-dihydro-isoindol-1-one] showed an EC50 (human CYP11B2) of 4 nM and an EC50 (human CYP11B1) of 361 nM.
`CC(=O)N1CCCC(c2cncc(N3C(=O)c4ccc(Cl)cc4C3(C)C)n2)C1` (stereo not shown) [Example 462, 2-[6-(1-Acetyl-piperidin-3-yl)-pyrazin-2-yl]-5-chloro-3,3-dimethyl-2,3-dihydro-isoindol-1-one] showed an EC50 (human CYP11B2) of 32.6 nM and an EC50 (human CYP11B1) of 720 nM.
In the case of `CCC(=O)N1CCCC(c2cncc(N3C(=O)c4ccc(Cl)cc4C3(C)C)n2)C1` (stereo not shown) [Example 463, 5-Chloro-3,3-dimethyl-2-[6-(1-propionyl-piperidin-3-yl)-pyrazin-2-yl]-2,3-dihydro-isoindol-1-one], the EC50 (human CYP11B2) is reported as 47.1 nM and the EC50 (human CYP11B1) is reported as 932 nM.
In the case of `CCS(=O)(=O)N1CCCC(c2cncc(N3C(=O)c4ccc(Cl)cc4C3(C)C)n2)C1` (stereo not shown) [Example 464, 5-Chloro-2-[6-(1-ethanesulfonyl-piperidin-3-yl)-pyrazin-2-yl]-3,3-dimethyl-2,3-dihydro-isoindol-1-one], the EC50 (human CYP11B2) is reported as 2.8 nM and the EC50 (human CYP11B1) is reported as 1650 nM.
With `CC1(C)c2cc(Cl)ccc2C(=O)N1c1cncc(C2CCCN(S(C)(=O)=O)C2)n1` (stereo not shown) [Example 465, 5-Chloro-2-[6-(1-methanesulfonyl-piperidin-3-yl)-pyrazin-2-yl]-3,3-dimethyl-2,3-dihydro-isoindol-1-one] the EC50 (human CYP11B2) was 66.9 nM and the EC50 (human CYP11B1) was 2270 nM.
In the case of `N#Cc1ccc([C@H]2CCCc3cncn32)cc1` [FAD286], the plasma aldosterone [1] is given as “reduced”.
For `N#Cc1ccc([C@H]2CCc3cncn32)c(F)c1` [LCI699], the circulating aldosterone levels (CYP11B2) is listed as “significantly lower”.
For `CC(=O)S[C@@H]1CC2=CC(=O)CC[C@]2(C)[C@H]2CC[C@@]3(C)[C@@H](CC[C@@]34CCC(=O)O4)[C@H]12` [spironolactone], the plasma aldosterone [1] is listed as “increased”.
